Data: US8937091B2 (Japan Science and Technology Agency, priority 2009, dated 2015)

Experiments:
[1] = system: SOCE (store operated calcium entry) in CHO cells; assay: Assay of SOCE (store operated calcium entry)-inhibiting action; type: cell-based, Chinese hamster; conditions: CHO cells, thapsigargin; for inhibition at 10 µM / inhibition at 30 µM / inhibition at 100 µM: Cricetulus griseus, CHO, read-out: SOCE level (percentage of inhibition)
Summary of the method: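 CHO cells in calcium-free BSS received compound, then 1 μM thapsigargin 2 min later to deplete stores; after 9 min, 2 mM calcium chloride (final) added. Percent inhibition of the rise in intracellular calcium determined at various compound concentrations.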

[2] = system: IICR (IP3 induced calcium release) in CHO cells; assay: Assay of IICR (IP3 induced calcium release)-inhibiting action; type: cell-based, Chinese hamster; conditions: CHO cells, 10 μM ATP; for inhibition at 10 µM / inhibition at 30 µM / inhibition at 100 µM: Cricetulus griseus, CHO, read-out: IICR level (percentage of inhibition)
Summary of the method: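 Inhibition (%) of the intracellular calcium increase triggered by 10 μM ATP, measured in CHO cells in BSS with calcium. Compound given 1 min after the buffer exchange and 2 min before ATP; values reported per compound concentration.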

SMILES | inhibition at 10 µM ([1]; test compound 10 μmol) | inhibition at 30 µM ([1]; test compound 30 μmol) | inhibition at 100 µM ([1]; test compound 100 μmol) | inhibition at 10 µM ([2]; test compound 10 μmol) | inhibition at 30 µM ([2]; test compound 30 μmol) | inhibition at 100 µM ([2]; test compound 100 μmol) | SOCE level (percentage of inhibition) ([1]; test compound 10 μmol) | SOCE level (percentage of inhibition) ([1]; test compound 30 μmol) | SOCE level (percentage of inhibition) ([1]; test compound 100 μmol) | IICR level (percentage of inhibition) ([2]; test compound 10 μmol) | IICR level (percentage of inhibition) ([2]; test compound 30 μmol) | IICR level (percentage of inhibition) ([2]; test compound 100 μmol)
CCCCN(CCO)CCC(=O)c1ccccn1 [Example 250] | 0% | 0% | 0% | 0% | 10% | 20% |  |  |  |  |  | 
CN(CCO)CCC(=O)c1ccccn1 [Example 251, 2-(N-methyl-2-hydroxyethyl)aminoethyl-2-pyridylketone] | 0% | 0% | 0% | 0% | 0% | 0% |  |  |  |  |  | 
CCc1nccnc1C(=O)CCN(CCO)C(C)C [Example 252, 2-(N-isopropyl-2-hydroxyethyl)aminoethyl-3-ethyl-2-pyrazylketone] |  |  |  |  |  |  | 0% | 0% | 0% | 0% | 0% | 80%
CCN(CCC(=O)c1cccs1)Cc1ccccc1 [Example 253, 2-(N-benzylethyl)aminoethyl-2-thiophenylketone] | 0% | 10% | 40% | 20% | 0% | 20% |  |  |  |  |  | 
CN(CCO)CCC(=O)c1ccsc1 [Example 254, 2-(N-2-hydroxyethylmethyl)aminoethyl-3-thiophenylketone] | 0% | 0% | 0% | 0% | 30% | 40% |  |  |  |  |  | 
CCCCN(CCO)CCC(=O)c1ccc(C)o1 [Example 255, 2-(N-2-hydroxyethylbutyl)aminoethyl-5-methyl-2-furylketone] | 0% | 0% | 0% | 0% | 30% | 50% |  |  |  |  |  | 
CC(C)(C)N(CCC(=O)c1nccs1)Cc1ccccc1 [Example 256, 2-(N-benzyl-t-butyl)aminoethyl-2-thiazolylketone] | 0% | 0% | 10% | 50% | 90% | 80% |  |  |  |  |  | 
Cc1nc(C)c(C(=O)CCN(CCO)C(C)C)s1 [Example 257, 2-(N-isopropyl-2-hydroxyethyl)aminoethyl-2,4-dimethyl-5-thiazolylketone] | 0% | 0% | 0% | 0% | 0% | 20% |  |  |  |  |  | 
CN(CCC(=O)c1nccs1)Cc1ccccc1 [Example 258, 2-(N-benzylmethyl)aminoethyl-2-thiazolylketone] | 0% | 0% | 0% | 20% | 0% | 20% |  |  |  |  |  | 
CN(CCO)CCC(=O)c1cccnc1 [Example 259, 2-(N-2-hydroxyethylmethyl)aminoethyl-3-pyridylketone] | 0% | 0% | 0% | 0% | 0% | 20% |  |  |  |  |  | 
CCc1nccnc1C(=O)CCN(CCO)CCO [Example 260, 2-(N-bis-hydroxyethyl)aminoethyl-3-ethyl-2-pyrazylketone] | 0% | 0% | 0% | 20% | 0% | 20% |  |  |  |  |  | 
CN(CCO)CCC(=O)c1ccncc1 [Example 262, 2-(N-2-hydroxyethylmethyl)aminoethyl-4-pyridylketone] | 0% | 0% | 0% | 0% | 0% | 70% |  |  |  |  |  | 
Cc1csc(C(=O)CCN(Cc2ccccc2)C(C)C)n1 [Example 263, 2-(N-benzylisopropyl)aminoethyl-4-methyl-2-thiazolylketone] | 0% | 0% | 30% | 0% | 0% | 70% |  |  |  |  |  | 
CCCCN(CCO)CCC(=O)c1nc(C)cs1 [Example 264, 2-(N-butyl-2-hydroxyethyl)aminoethyl-4-methyl-2-thiazolylketone] | 0% | 0% | 10% | 0% | 0% | 70% |  |  |  |  |  | 
Cc1csc(C(=O)CCN(C)Cc2ccccc2)n1 [Example 265, 2-(N-benzylmethyl)aminoethyl-4-methyl-2-thiazolylketone] | 10% | 10% | 10% | 0% | 0% | 70% |  |  |  |  |  | 
CC(C)N(CCC(=O)c1ccc(Cl)s1)Cc1ccccc1 [Example 266, 2-(N-benzylisopropyl)aminoethyl-5-chloro-2-thiophenylketone] | 0% | 20% | 40% | 0% | 0% | 70% |  |  |  |  |  | 
CC(C)N(CCO)CCC(=O)c1ccc(Cl)s1 [Example 267, 2-(N-2-hydroxyethylisopropyl)aminoethyl-5-chloro-2-thiophenylketone] | 0% | 0% | 0% | 0% | 0% | 70% |  |  |  |  |  | 
O=C(CCN(CCO)Cc1ccccc1)c1ccc(Cl)s1 [Example 268, 2-(N-benzyl-2-hydroxyethyl)aminoethyl-5-chloro-2-thiophenylketone] | 10% | 0% | 10% | 0% | 0% | 70% |  |  |  |  |  | 
O=C(CCNCCCO)c1cnccn1 [Example 270, 2-(N-hydroxypropyl)aminoethyl-2-pyrazylketone] |  | 10% | 30% | 20% | 0% | 10% |  |  |  |  |  | 
O=C(CCNCc1ccccc1)c1ccncc1 [Example 271, 2-(N-benzyl)aminoethyl-4-pyridylketone] |  | 0% | 10% | 10% | 0% | 40% |  |  |  |  |  | 
O=C(CCNC(c1ccccc1)C(O)c1ccccc1)c1ccco1 (centres unmarked) [Example 272, 2-(N-1,2-diphenyl-2-hydroxyethyl)aminoethyl-2-furylketone] |  | 20% | 40% | 40% | 20% | 20% |  |  |  |  |  | 
O=C(CCNCCN(CCO)CCC(=O)c1cnccn1)c1cnccn1 [Example 273, N,N-bis(2-pyrazoylethyl)-N-hydroxyethylethylenediamine] |  | 0% | 10% | 40% | 30% | 20% |  |  |  |  |  | 
O=C(CCNCCO)c1ccco1 [Example 275, 2-(N-2-hydroxyethyl)aminoethyl-2-furylketone] |  | 0% | 0% | 30% | 30% | 30% |  |  |  |  |  | 
O=C(CCNCCCCNCCC(=O)c1cnccn1)c1cnccn1 [Example 276, N,N-bis(2-pyrazoylethyl)tetramethylenediamine] |  | 0% | 0% | 0% | 0% | 20% |  |  |  |  |  | 
O=C(CCN(CCO)CCO)c1ccc(Cl)s1 [Example 277, 2-bis(N-2-hydroxyethyl)aminoethyl-5-chloro-2-thienylketone] |  | 0% | 0% | 0% | 0% | 20% |  |  |  |  |  | 
CCN(CCC(=O)c1ccc(Cl)s1)Cc1ccccc1 [Example 278, 2-(N-ethylbenzyl)aminoethyl-5-chloro-2-thienylketone] |  | 30% | 40% | 30% | 20% | 60% |  |  |  |  |  | 
CN(CCC(=O)c1ccc(Cl)s1)Cc1ccccc1 [Example 279, 2-(N-methylbenzyl)aminoethyl-5-chloro-2-thienylketone] |  | 30% | 40% | 20% | 0% | 40% |  |  |  |  |  | 
CC(C)(C)N(CCC(=O)c1ccc(Cl)s1)Cc1ccccc1 [Example 280, 2-(N-t-butylbenzyl)aminoethyl-5-chloro-2-thienylketone] |  | 0% | 30% | 50% | 60% | 70% |  |  |  |  |  | 
